In patent publication US10131652B2, “Pyrimidinyloxy benzene derivatives as herbicides” (E. I. DU PONT DE NEMOURS AND COMPANY, priority 2014, dated 2018):

Key:
Experiment in all cases: Test F pre-/postemergence plant response
Type in all cases: in vivo
Details in all cases: scale 0 to 100
[1] = test system: barnyardgrass (Echinochloa crus-galli)
Outline: (§1)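 Values are visual ratings, where 100 is complete control and 0 is no effect, given after 14 to 21 days of greenhouse growth. Test chemicals in a non-phytotoxic, surfactant-containing solvent were sprayed on soil just after planting or on emerged seedlings at the 1- to 4-leaf stage.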

[2] = test system: morningglory (Ipomoea coccinea)
Outline: as §1

[3] = test system: sandbur (southern sandbur, Cenchrus echinatus)
Outline: as §1

[4] = test system: palmer pigweed (Amaranthus palmeri)
Outline: as §1

[5] = test system: johnsongrass (Sorghum halepense)
Outline: as §1

[6] = test system: dayflower (Virginia (VA) dayflower, Commelina virginica)
Outline: as §1

[7] = test system: waterhemp (common waterhemp, Amaranthus rudis)
Outline: as §1

[8] = test system: giant foxtail (Setaria faberii)
Outline: as §1

[9] = test system: green foxtail (Setaria viridis)
Outline: as §1

[10] = test system: lambsquarters (Chenopodium album)
Outline: as §1

[11] = test system: arrowleaf sida (Sida rhombifolia)
Outline: as §1

Fc1ccc(Oc2ncc(Cl)cn2)c(-c2cc(C(F)F)on2)c1Cl [Compound 96]
Plant response rating, Barnyardgrass ([1]; 16 g ai/ha Postemergence): 0 | Plant response rating, Barnyardgrass ([1]; 16 g ai/ha Preemergence): 0 | Plant response rating, Barnyardgrass ([1]; 31 g ai/ha Postemergence): 10 | Plant response rating, Barnyardgrass ([1]; 31 g ai/ha Preemergence): 0 | Plant response rating, Barnyardgrass ([1]; 62 g ai/ha Postemergence): 20 | Plant response rating, Barnyardgrass ([1]; 62 g ai/ha Preemergence): 0 | Plant response rating, Barnyardgrass ([1]; 125 g ai/ha Postemergence): 20 | Plant response rating, Barnyardgrass ([1]; 125 g ai/ha Preemergence): 0 | Plant response rating, Morningglory ([2]; 16 g ai/ha Preemergence): 35 | Plant response rating, Morningglory ([2]; 31 g ai/ha Preemergence): 35 | Plant response rating, Morningglory ([2]; 125 g ai/ha Preemergence): 25 | Plant response rating, Morningglory ([2]; Preemergence): 35 | Plant response rating, Sandbur ([3]; 16 g ai/ha Postemergence): 0 | Plant response rating, Sandbur ([3]; 16 g ai/ha Preemergence): 0 | Plant response rating, Sandbur ([3]; 31 g ai/ha Postemergence): 0 | Plant response rating, Sandbur ([3]; 31 g ai/ha Preemergence): 10 | Plant response rating, Sandbur ([3]; 62 g ai/ha Postemergence): 0 | Plant response rating, Sandbur ([3]; 125 g ai/ha Postemergence): 0 | Plant response rating, Sandbur ([3]; 125 g ai/ha Preemergence): 30 | Plant response rating, Sandbur ([3]; Preemergence): 40 | Plant response rating, Pigweed, Palmer ([4]; 16 g ai/ha Postemergence): 70 | Plant response rating, Pigweed, Palmer ([4]; 16 g ai/ha Preemergence): 80 | Plant response rating, Pigweed, Palmer ([4]; 31 g ai/ha Postemergence): 80 | Plant response rating, Pigweed, Palmer ([4]; 31 g ai/ha Preemergence): 98 | Plant response rating, Pigweed, Palmer ([4]; 62 g ai/ha Postemergence): 95 | Plant response rating, Pigweed, Palmer ([4]; 125 g ai/ha Postemergence): 90 | Plant response rating, Pigweed, Palmer ([4]; 125 g ai/ha Preemergence): 100 | Plant response rating, Pigweed, Palmer ([4]; Preemergence): 100 | Plant response rating, Johnsongrass ([5]; 16 g ai/ha Preemergence): 20 | Plant response rating, Johnsongrass ([5]; 31 g ai/ha Preemergence): 60 | Plant response rating, Johnsongrass ([5]; 125 g ai/ha Preemergence): 98 | Plant response rating, Johnsongrass ([5]; Preemergence): 50 | Plant response rating, Dayflower, VA ([6]; 16 g ai/ha Postemergence): 20 | Plant response rating, Dayflower, VA ([6]; 16 g ai/ha Preemergence): 0 | Plant response rating, Dayflower, VA ([6]; 31 g ai/ha Postemergence): 40 | Plant response rating, Dayflower, VA ([6]; 31 g ai/ha Preemergence): 0 | Plant response rating, Dayflower, VA ([6]; 62 g ai/ha Postemergence): 70 | Plant response rating, Dayflower, VA ([6]; 62 g ai/ha Preemergence): 0 | Plant response rating, Dayflower, VA ([6]; 125 g ai/ha Postemergence): 70 | Plant response rating, Dayflower, VA ([6]; 125 g ai/ha Preemergence): 20 | Plant response rating, Waterhemp ([7]; 16 g ai/ha Postemergence): 75 | Plant response rating, Waterhemp ([7]; 16 g ai/ha Preemergence): 40 | Plant response rating, Waterhemp ([7]; 31 g ai/ha Postemergence): 90 | Plant response rating, Waterhemp ([7]; 31 g ai/ha Preemergence): 100 | Plant response rating, Waterhemp ([7]; 62 g ai/ha Postemergence): 100 | Plant response rating, Waterhemp ([7]; 125 g ai/ha Postemergence): 95 | Plant response rating, Waterhemp ([7]; 125 g ai/ha Preemergence): 100 | Plant response rating, Waterhemp ([7]; Preemergence): 100 | Plant response rating, Foxtail, Giant ([8]; 16 g ai/ha Preemergence): 0 | Plant response rating, Foxtail, Giant ([8]; 31 g ai/ha Preemergence): 0 | Plant response rating, Foxtail, Giant ([8]; 62 g ai/ha Preemergence): 0 | Plant response rating, Foxtail, Giant ([8]; 125 g ai/ha Preemergence): 20 | Plant response rating, Foxtail, Green ([9]; 16 g ai/ha Preemergence): 25 | Plant response rating, Foxtail, Green ([9]; 31 g ai/ha Preemergence): 30 | Plant response rating, Foxtail, Green ([9]; 125 g ai/ha Preemergence): 25 | Plant response rating, Foxtail, Green ([9]; Preemergence): 35 | Plant response rating, Lambsquarters ([10]; 16 g ai/ha Preemergence): 5 | Plant response rating, Lambsquarters ([10]; 31 g ai/ha Preemergence): 100 | Plant response rating, Lambsquarters ([10]; 125 g ai/ha Preemergence): 100 | Plant response rating, Lambsquarters ([10]; Preemergence): 100 | Plant response rating, Arrowleaf Sida ([11]; 16 g ai/ha Postemergence): 70 | Plant response rating, Arrowleaf Sida ([11]; 16 g ai/ha Preemergence): 50 | Plant response rating, Arrowleaf Sida ([11]; 31 g ai/ha Postemergence): 80 | Plant response rating, Arrowleaf Sida ([11]; 31 g ai/ha Preemergence): 70 | Plant response rating, Arrowleaf Sida ([11]; 62 g ai/ha Postemergence): 90 | Plant response rating, Arrowleaf Sida ([11]; 62 g ai/ha Preemergence): 80 | Plant response rating, Arrowleaf Sida ([11]; 125 g ai/ha Postemergence): 95 | Plant response rating, Arrowleaf Sida ([11]; 125 g ai/ha Preemergence): 90

CC(F)(F)c1cc(-c2ccccc2Oc2ncc(Br)cn2)no1 [Compound 149]
Plant response rating, Barnyardgrass ([1]; 16 g ai/ha Postemergence): 0 | Plant response rating, Barnyardgrass ([1]; 16 g ai/ha Preemergence): 0 | Plant response rating, Barnyardgrass ([1]; 31 g ai/ha Postemergence): 5 | Plant response rating, Barnyardgrass ([1]; 31 g ai/ha Preemergence): 0 | Plant response rating, Barnyardgrass ([1]; 62 g ai/ha Postemergence): 10 | Plant response rating, Barnyardgrass ([1]; 62 g ai/ha Preemergence): 15 | Plant response rating, Barnyardgrass ([1]; 125 g ai/ha Postemergence): 10 | Plant response rating, Barnyardgrass ([1]; 125 g ai/ha Preemergence): 35 | Plant response rating, Morningglory ([2]; 16 g ai/ha Preemergence): 0 | Plant response rating, Morningglory ([2]; 31 g ai/ha Preemergence): 0 | Plant response rating, Morningglory ([2]; 125 g ai/ha Preemergence): 10 | Plant response rating, Morningglory ([2]; Preemergence): 0 | Plant response rating, Sandbur ([3]; 16 g ai/ha Postemergence): 0 | Plant response rating, Sandbur ([3]; 16 g ai/ha Preemergence): 0 | Plant response rating, Sandbur ([3]; 31 g ai/ha Postemergence): 5 | Plant response rating, Sandbur ([3]; 31 g ai/ha Preemergence): 0 | Plant response rating, Sandbur ([3]; 62 g ai/ha Postemergence): 15 | Plant response rating, Sandbur ([3]; 125 g ai/ha Postemergence): 10 | Plant response rating, Sandbur ([3]; 125 g ai/ha Preemergence): 10 | Plant response rating, Sandbur ([3]; Preemergence): 0 | Plant response rating, Pigweed, Palmer ([4]; 16 g ai/ha Postemergence): 65 | Plant response rating, Pigweed, Palmer ([4]; 16 g ai/ha Preemergence): 25 | Plant response rating, Pigweed, Palmer ([4]; 31 g ai/ha Postemergence): 95 | Plant response rating, Pigweed, Palmer ([4]; 31 g ai/ha Preemergence): 90 | Plant response rating, Pigweed, Palmer ([4]; 62 g ai/ha Postemergence): 98 | Plant response rating, Pigweed, Palmer ([4]; 125 g ai/ha Postemergence): 100 | Plant response rating, Pigweed, Palmer ([4]; 125 g ai/ha Preemergence): 100 | Plant response rating, Pigweed, Palmer ([4]; Preemergence): 100 | Plant response rating, Johnsongrass ([5]; 16 g ai/ha Preemergence): 0 | Plant response rating, Johnsongrass ([5]; 31 g ai/ha Preemergence): 0 | Plant response rating, Johnsongrass ([5]; 125 g ai/ha Preemergence): 15 | Plant response rating, Johnsongrass ([5]; Preemergence): 0 | Plant response rating, Dayflower, VA ([6]; 16 g ai/ha Postemergence): 10 | Plant response rating, Dayflower, VA ([6]; 16 g ai/ha Preemergence): 0 | Plant response rating, Dayflower, VA ([6]; 31 g ai/ha Postemergence): 20 | Plant response rating, Dayflower, VA ([6]; 31 g ai/ha Preemergence): 0 | Plant response rating, Dayflower, VA ([6]; 62 g ai/ha Postemergence): 40 | Plant response rating, Dayflower, VA ([6]; 62 g ai/ha Preemergence): 5 | Plant response rating, Dayflower, VA ([6]; 125 g ai/ha Postemergence): 50 | Plant response rating, Dayflower, VA ([6]; 125 g ai/ha Preemergence): 40 | Plant response rating, Waterhemp ([7]; 16 g ai/ha Postemergence): 85 | Plant response rating, Waterhemp ([7]; 16 g ai/ha Preemergence): 35 | Plant response rating, Waterhemp ([7]; 31 g ai/ha Postemergence): 95 | Plant response rating, Waterhemp ([7]; 31 g ai/ha Preemergence): 100 | Plant response rating, Waterhemp ([7]; 62 g ai/ha Postemergence): 95 | Plant response rating, Waterhemp ([7]; 125 g ai/ha Postemergence): 98 | Plant response rating, Waterhemp ([7]; 125 g ai/ha Preemergence): 100 | Plant response rating, Waterhemp ([7]; Preemergence): 100 | Plant response rating, Foxtail, Giant ([8]; 16 g ai/ha Preemergence): 0 | Plant response rating, Foxtail, Giant ([8]; 31 g ai/ha Preemergence): 20 | Plant response rating, Foxtail, Giant ([8]; 62 g ai/ha Preemergence): 40 | Plant response rating, Foxtail, Giant ([8]; 125 g ai/ha Preemergence): 85 | Plant response rating, Foxtail, Green ([9]; 16 g ai/ha Preemergence): 0 | Plant response rating, Foxtail, Green ([9]; 31 g ai/ha Preemergence): 0 | Plant response rating, Foxtail, Green ([9]; 125 g ai/ha Preemergence): 50 | Plant response rating, Foxtail, Green ([9]; Preemergence): 50 | Plant response rating, Lambsquarters ([10]; 31 g ai/ha Preemergence): 0 | Plant response rating, Lambsquarters ([10]; 125 g ai/ha Preemergence): 100 | Plant response rating, Lambsquarters ([10]; Preemergence): 100 | Plant response rating, Arrowleaf Sida ([11]; 16 g ai/ha Postemergence): 75 | Plant response rating, Arrowleaf Sida ([11]; 16 g ai/ha Preemergence): 0 | Plant response rating, Arrowleaf Sida ([11]; 31 g ai/ha Postemergence): 85 | Plant response rating, Arrowleaf Sida ([11]; 31 g ai/ha Preemergence): 35 | Plant response rating, Arrowleaf Sida ([11]; 62 g ai/ha Postemergence): 95 | Plant response rating, Arrowleaf Sida ([11]; 62 g ai/ha Preemergence): 65 | Plant response rating, Arrowleaf Sida ([11]; 125 g ai/ha Postemergence): 98 | Plant response rating, Arrowleaf Sida ([11]; 125 g ai/ha Preemergence): 100
